Measurements from ChEMBL document CHEMBL5120881, “Silencing Tautomerization to Isolate Unstable Physalins from Physalis minima” (J Nat Prod, 2022).

How the values were obtained:
[1] = Cytotoxicity against mouse RAW264.7 cells assessed as cell viability at 10 uM incubated for 48 hrs by CCK8 assay; type: toxicity, cell-based; conditions: read-out: Activity
[2] = Cytotoxicity against human L02 cells assessed as cell viability at 10 uM incubated for 48 hrs by CCK8 assay; type: toxicity, cell-based; conditions: read-out: Activity
SGC-7901 = assay: Antiproliferative activity against human SGC-7901 cells assessed as reduction in cell viability incubated for 48 hrs by CCK8 assay; type: functional, cell-based; conditions: SGC-7901, 48 h
A549 = assay: Antiproliferative activity against human A549 cells assessed as reduction in cell viability incubated for 48 hrs by CCK8 assay; type: functional, cell-based; conditions: A549, 48 h
HepG2 = assay: Antiproliferative activity against human HepG2 cells assessed as reduction in cell viability incubated for 48 hrs by CCK8 assay; type: functional, cell-based; conditions: HepG2, 48 h
MCF7 = assay: Antiproliferative activity against human MCF7 cells assessed as reduction in cell viability incubated for 48 hrs by CCK8 assay; type: functional, cell-based; conditions: MCF7, 48 h
RAW264.7 = assay: Antiinflammatory activity in mouse RAW264.7 assessed as inhibition of LPS-stimulated NO production pretreated with LPS followed by compund addition by Griess reagent based microplate reader assay; type: functional, cell-based; conditions: for IC50: Mus musculus, RAW264.7
[3] = Cytotoxicity against human L02 cells assessed as reduction in cell viability incubated for 48 hrs by CCK8 assay; type: toxicity, cell-based
[4] = Cytotoxicity against mouse RAW264.7 cells assessed as reduction in cell viability incubated for 48 hrs by CCK8 assay; type: toxicity, cell-based

SMILES | viability at 48 h, 10 µM [1] | viability at 48 h, 10 µM [2] | IC50 (SGC-7901) | IC50 (A549) | IC50 (HepG2) | IC50 (MCF7) | inhibition (INH) (RAW264.7) | IC50 (RAW264.7) | IC50 at 48 h [3] | IC50 at 48 h [4]
O=C(CCCCCCC(=O)Nc1ccccc1)NO [VORINOSTAT] | 87% | 92.5% | – | – | – | – | – | – | – | –
C[C@]12C(=O)C=CCC1=CC[C@@H]1[C@@H]2CC[C@]2(O)C(=O)O[C@@]3(C)[C@H]4C[C@@]5(C)[C@@H]6C(=O)[C@@]1(OC[C@@]5(O)C(=O)O4)O[C@@]632 | 95.5% | 97.3% | 12.1 µM | 12.2 µM | 16.8 µM | 10.5 µM | – | – | – | –
C[C@@]12C[C@H]3OC(=O)[C@@H]1CO[C@@]14O[C@@]5([C@H]2C1=O)[C@@]3(C)OC(=O)[C@@]5(O)CC[C@H]1[C@H]4C[C@@H](O)[C@@]2(Cl)CC=CC(=O)[C@]12C | 98.3% | 95.3% | 12.7 µM | 21.7 µM | 24.7 µM | 12.5 µM | <50% | – | – | –
C[C@]12C(=O)C=CCC1=CC[C@@H]1[C@@H]2CC[C@]2(O)C(=O)O[C@@]3(C)[C@H]4C[C@]5(C)[C@@H](CO[C@@]16O[C@@]32[C@H]5C6=O)C(=O)O4 [PHYSALIN B] | 95.8% | 97.8% | 12.1 µM | 11.9 µM | 11.7 µM | 11.2 µM | <50% | – | – | –
C=C1C(=O)O[C@@H]2C[C@@]1(C)[C@@H]1C(=O)[C@@]3(O)O[C@]14[C@@]2(C)OC(=O)[C@@]4(O)CC[C@H]1[C@H]3C[C@@H](O)[C@@]2(Cl)CC=CC(=O)[C@]12C | 90.1% | 98.1% | 1.1 µM | 2 µM | 4.9 µM | 2.1 µM | <50% | – | – | –
C[C@]12C(=O)CC=CC1=CC[C@@H]1[C@@H]2CC[C@]2(O)C(=O)O[C@@]3(C)[C@H]4C[C@]5(C)[C@@H](CO[C@]16O[C@@]32[C@H]5C6=O)C(=O)O4 | 94.2% | 92.5% | 8.9 µM | 4.3 µM | 9.8 µM | 2.5 µM | <50% | – | – | –
C=C1C(=O)O[C@@H]2C[C@@]1(C)[C@@H]1C(=O)[C@@]3(O)O[C@]14[C@@]2(C)OC(=O)[C@@]4(O)CC[C@H]1[C@H]3C[C@@H](O)C2=CC=CC(=O)[C@@]21C | 92.3% | 95.2% | 9.8 µM | 7 µM | 8.3 µM | 12.5 µM | <50% | – | – | –
C=C1C(=O)O[C@@H]2C[C@@]1(C)[C@@H]1C(=O)[C@@]3(O)O[C@]14[C@@]2(C)OC(=O)[C@@]4(O)CC[C@H]1[C@H]3C[C@@H](O)[C@@]2(O)CC=CC(=O)[C@]12C | 93.5% | 97.5% | 12.4 µM | 5.4 µM | 9.8 µM | 7.3 µM | <50% | – | – | –
C=C1C(=O)O[C@@H]2C[C@@]1(C)[C@@H]1C(=O)[C@@]3(O)O[C@]14[C@@]2(C)OC(=O)[C@@]4(O)CC[C@H]1[C@H]3CC=C2C=CCC(=O)[C@@]21C | 91.4% | 95.4% | 9.1 µM | 4.2 µM | 9.4 µM | 1.2 µM | <50% | – | – | –
C=C1C(=O)O[C@@H]2C[C@@]1(C)[C@@H]1C(=O)[C@@]3(O)O[C@]14[C@@]2(C)OC(=O)[C@@]4(O)CC[C@H]1[C@H]3C[C@@H](O)[C@@]2(OC)CC=CC(=O)[C@]12C | 94.2% | 98.1% | 7.8 µM | 11.4 µM | 14 µM | 10.6 µM | – | 25.6 µM | – | –
C=C1C(=O)O[C@@H]2C[C@@]1(C)[C@@H]1C(=O)[C@@]3(O)O[C@]14[C@@]2(C)OC(=O)[C@@]4(O)CC[C@H]1[C@H]3C[C@H]2O[C@]23CC=CC(=O)[C@]13C | 85.2% | 90.2% | 0.3 µM | 0.2 µM | 1.3 µM | 0.9 µM | <50% | – | – | –
C[C@@]12C[C@H]3OC(=O)[C@@H]1CO[C@@]14O[C@]56[C@H]2[C@]1(O)[C@H](C[C@]5(O)C(=O)O[C@@]36C)[C@H]1[C@H]4CC(O)[C@]2(O)CC=CC(=O)[C@]12C (some centres undefined) | – | – | > 50 µM | > 50 µM | > 50 µM | > 50 µM | – | 9 µM | > 50 µM | > 50 µM
C[C@@]12C[C@H]3OC(=O)[C@@H]1CO[C@@]14O[C@@]5([C@H]2C1=O)[C@@]3(C)OC(=O)[C@@]5(O)CC[C@H]1[C@H]4C[C@H](O)[C@]2(O)CC=CC(=O)[C@]12C | – | – | > 50 µM | > 50 µM | > 50 µM | > 50 µM | – | 43.8 µM | > 50 µM | > 50 µM
C=C1C(=O)O[C@@H]2C[C@@]1(C)[C@@H]1C(=O)[C@@]3(O)O[C@]14[C@@]2(C)OC(=O)[C@@]4(O)CC[C@H]1[C@H]3[C@H](O)C=C2CC=CC(=O)[C@@]21C | – | – | > 50 µM | > 50 µM | > 50 µM | > 50 µM | – | 9.5 µM | > 50 µM | > 50 µM
C=C1C(=O)O[C@@H]2C[C@@]1(C)[C@@H]1C(=O)[C@@]3(O)O[C@]14[C@@]2(C)OC(=O)[C@@]4(O)CC[C@H]1[C@H]3CC=C2CC=CC(=O)[C@@]21C | 90.7% | 94.2% | 2.8 µM | 8.9 µM | 13.2 µM | 7.6 µM | <50% | – | – | –
